# According to publication PMC7038139, “Novel Peptide CM 7 Targeted c-Met with Antitumor Activity” (Molecules, 2020):
# “Also recorded” adds a separate entry of the source.
# Experiments:
# MKN-45 cells [1] = experiment: Cell proliferation assay, MKN-45; assay type: cell-based, Human; details: CM 7, various concentrations; 4 days; serum-free medium; cell count; means of six determinations
# Experimental: (§1) Human gastric cancer cell line MKN-45 cells were from the Chinese Academy of Medical Sciences, Beijing, China. Human gastric cancer cell line MKN-28 cells, the human glioma cell line U87 cells, and MDCK cells were obtained from the American Type Culture Collection (ATCC). The MKN-45 and MKN-28 cells were grown under a humidified atmosphere of 5% CO2 at 37 °C in RPMI 1640 medium (Biological Industries, Israel), supplemented with 10% fetal bovine serum (FBS, Biological Industries, Israel), 2 mmol/L L-glutamine (Gibco, Life Technologies, Grand Island, NY, USA), 100 U/mL penicillin, and 100 μg/mL streptomycin (Invitrogen, Carlsbad, CA, USA). MDCK and U87 cells were cultured under a humidified atmosphere of 5% CO2 at 37 °C in Dulbecco’s modified Eagle’s medium (DMEM) (Gibco, Life Technologies, Grand Island, NY, USA), supplemented with 10% FBS, 2 mmol/L L-glutamine (Gibco, Life Technologies, Grand Island, NY, USA), 100 U/mL penicillin, and 100 μg/mL streptomycin (Invitrogen, Carlsbad, CA, USA).
# (§2) As described in the literature, MKN-45, MKN-28, and U87 cells were seeded into 48-well culture plates (6500 cells/well) and cultured overnight. […] After 4 days, the cells were trypsinized and counted by a cell counter. […]
# U87 cells = experiment: Cell proliferation assay, U87 (HGF-stimulated); assay type: cell-based, human; details: CM 7, various concentrations; 20 ng/mL HGF; 4 days; serum-free medium; cell count; means of six determinations
# Experimental: as §1, §2
# MKN-28 cells = experiment: Cell proliferation assay, MKN-28; assay type: cell-based, Human; details: CM 7, various concentrations; 4 days; serum-free medium; cell count; means of six determinations
# Experimental: as §1, §2
# MKN-45 cells [2] = experiment: Cell cycle distribution assay; assay type: cell-based, Human; details: 48 h; compared with the control group; n = 3
# Experimental: According to the cell cycle detection kit (Keygen) instructions, MKN-45 cells were collected and seeded in a six-well culture plate at the concentration 2 × 10^6/mL overnight. Then, the cells were washed with PBS and treated with peptide CM 7 at the indicated concentration for 48 h. The experiment was performed in triplicate. A MACS Quant flow cytometer (Miltenyi Biotec GmbH, Bergisch Gladbach, Germany) was used to detect the cell cycle profile, and FlowJo software version 7.6 (FlowJo LLC, Ashland, USA) was used to analyze the data.
# MKN-45 cells [3] = experiment: Transwell invasion assay; assay type: cell-based, Human; details: Matrigel-coated Transwell, 8 μm pores; 48 h; n = 3; dose-dependent
# Experimental: For the invasion assay, a chamber was placed into a 24-well culture plate with 600 μL RPMI 1640 medium containing 10% FBS. MKN-45 cells were resuspended in serum-free medium and cultured on the upper compartment of the Transwell chamber (1.0 × 10^5 cells/well; pore size, 8 μm; Merck Millipore, Germany) coated with Matrigel. CM 7 and Crizotinib were added to the top side of the membrane at the indicated concentrations. After 48 h, the noninvaded cells were removed, and the invaded cells were fixed with ethanol and stained with crystal violet solution (0.1%) for 15 min at room temperature. The experiment was performed in triplicate, and images were obtained using an Olympus IX53 microscope (Olympus, Japan).
# MKN-45 cells [4] = experiment: Wound healing (migration) assay; assay type: cell-based, Human; details: 1% FBS, 48 h, n = 3, dose-dependent
# Experimental: For the wound healing assay, MKN-45 cells (4 × 10^4 cells/well) were seeded in a 48-well culture plate. When the cells were almost completely fused, a sterile 200 μL pipette tip was used to generate a straight wound line across the monolayer cell. Then, the cells were washed with PBS and incubated in RPMI 1640 medium containing 1% FBS with CM 7 or Crizotinib at the indicated concentration for 48 h. The experiment was performed in triplicate, and the cell migration toward the gap was captured using the microscope.
# [5] = tested on: c-Met and its downstream signaling molecules in MKN-45 cells; experiment: Western blot of c-Met signaling, MKN-45; assay type: cell-based, Human; details: 24 h
# Experimental: (§3) Western blot analysis was performed using an extraction buffer as described. MKN-45, MKN-28 and U87 cells were cultured in serum-free medium overnight, then treated with the indicated dose of peptide CM 7 for 24 h at 37 °C after stimulated without or with HGF for 15 min. Next, total cell lysates were separated by 12% SDS-polyacrylamide gel (SDS-PAGE) and transferred to polyvinylidene difluoride (PVDF) membranes. The PVDF membranes were probed with following primary antibodies: anti-phospho-Met (Tyr1234/1235, (Cell Signaling Technology, Beverly, MA, USA), anti-Met (Affinity, USA), anti-phospho-AKT (Ser473, (Affinity, USA)), anti-AKT (Affinity, USA), anti-phospho-Erk1/2 (Thr202/Tyr204, (Affinity, USA)), anti-Erk1/2 (Affinity, USA), anti-E-cadherin (WanleiBio, Shengyang, China), and anti-GAPDH (Multi Sciences, Hangzhou, China). Then, horseradish-peroxidase-conjugated anti-rabbit IgG was used as a second antibody. The immunoreactive proteins were exposed using an enhanced chemiluminescence detection reagent (WanleiBio, Shengyang, China). After sacrificing the mice and isolating the tumor tissue, Western blot was performed as previously described.
# [6] = tested on: c-Met and its downstream signaling molecules in U87 cells; experiment: Western blot of c-Met signaling, U87 (HGF-induced); assay type: cell-based, human; details: 24 h
# Experimental: as §3
# [7] = tested on: c-Met and its downstream signaling molecules in MKN-28 cells; experiment: Western blot of c-Met signaling, MKN-28; assay type: cell-based, Human
# Experimental: as §3
# [8] = tested on: c-Met and its downstream signaling molecules in MKN-45 xenografts; experiment: Western blot of c-Met signaling in xenograft tumors; assay type: in vivo, Human; details: n = 3
# Experimental: as §3
# human c-Met protein = experiment: Affinity to c-Met protein (as stated in abstract and discussion); assay type: binding; details: in words only; Kd not given
substance,measurement,setting,value
"DQIIANN [CM 7, Novel peptide DQIIANN targeting the tyrosine kinase receptor c-Met]",Inhibition of cell proliferation,MKN-45 cells [1],moderate regulation; also recorded: inhibit the proliferation of MKN-45 or U87 cells to a certain extent with considerable dose dependence
same,Inhibition of cell proliferation,U87 cells,inhibit the proliferation of MKN-45 or U87 cells to a certain extent with considerable dose dependence
same,Inhibition of cell proliferation,MKN-28 cells,no effect
same,Cell cycle arrest,MKN-45 cells [2],significantly arrested in the S phase
same,Inhibition of cell invasion,MKN-45 cells [3],moderate regulation; also recorded: significantly inhibit cell invasion
same,Inhibition of cell migration,MKN-45 cells [4],"moderate regulation; also recorded: significantly inhibit cell invasion (Figure 7A,C) and cell migration"
same,Expression of E-cadherin,[5],increase the expression of E-cadherin
same,"Phosphorylation of c-Met, Akt and Erk",[5]; dose-dependent,effectively inhibit
same,Expression of E-cadherin,[6],increase the expression of E-cadherin
same,"Phosphorylation of c-Met, Akt and Erk","[6]; HGF 15 min, dose-dependent",effectively inhibit
same,Expression of E-cadherin,[7],no effect
same,"Phosphorylation of c-Met, Akt and Erk",[7],not MKN-28 cells; also recorded: no effect
same,Intratumoral expression of E-cadherin,[8],significantly increased
same,"Intratumoral phosphorylation of c-Met, Akt or Erk",[8],markedly inhibited
same,Affinity to c-Met,human c-Met protein,specific binding to c-Met with high affinity
